Assay results as given in patent publication US8637499B2, “Benzoxazepines as inhibitors of PI3K/mTOR and methods of their use and manufacture” (Exelixis, Inc., priority 2009, dated 2014).

Tests used:
[1] = biological target: mTORC1 (mTOR/GbL/Raptor) (Homo sapiens, UniProt P42345); test: mTOR/GbL/Raptor (mTORC1) ELISA Assay; format: biochemical; conditions: 0.2 nM mTORC1, 10 μM ATP, 50 nM NHis-tagged 4E-BP1; phosphorylation of 4E-BP1; read-out: IC50
Procedure: mTOR/GbL/Raptor (mTORC1) ELISA Assay
The measurement of mTORC1 enzyme activity was performed in an ELISA assay format following the phosphorylation of 4E-BP1 protein. All experiments were performed in the 384-well format. Generally, 0.5 μL DMSO containing varying concentrations of the test compound was mixed with 15 μL enzyme solution. Kinase reactions were initiated with the addition of 15 μL of substrates-containing solution. The assay conditions were as follows; 0.2 nM mTORC1, 10 μM ATP and 50 nM NHis-tagged 4E-BP1 in 20 mM Hepes, pH 7.2, 1 mM DTT, 50 mM NaCl, 10 mM MnCl2, 0.02 mg/mL BSA, 0.01% CHAPS, 50 mM β-glycerophosphate. Following an incubation of 120 minutes at ambient temperature, 20 μL of the reaction volume was transferred to a Ni-Chelate-coated 384-well plate. The binding step of the 4E-BP1 protein proceeded for 60 minutes, followed by washing 4 times each with 50 μL of Tris-buffered saline solution (TBS). Anti-phospho-4E-BP1 rabbit-IgG (20 μL, 1:5000) in 5% BSA-TBST (0.2% Tween-20 in TBS) was added and further incubated for 60 minutes. Incubation with a secondary HRP-tagged anti-IgG was similarly performed after washing off the primary antibody (4 washes of 50 μL). Following the final wash step with TBST, 20 μL of SuperSignal ELISA Femto (Pierce Biotechnology) was added and the luminescence measured using an EnVision plate reader.

[2] = biological target: PI3Kα (Homo sapiens, UniProt P42336); test: PI3K Biochemical Assays (ATP consumption, luciferase-luciferin chemiluminescence); conditions: PI3Kα 1.5 nM, ATP 1 μM, PIP2 10 μM; percent of ATP consumed
Sequence of PI3Kα (P42336 whole entry): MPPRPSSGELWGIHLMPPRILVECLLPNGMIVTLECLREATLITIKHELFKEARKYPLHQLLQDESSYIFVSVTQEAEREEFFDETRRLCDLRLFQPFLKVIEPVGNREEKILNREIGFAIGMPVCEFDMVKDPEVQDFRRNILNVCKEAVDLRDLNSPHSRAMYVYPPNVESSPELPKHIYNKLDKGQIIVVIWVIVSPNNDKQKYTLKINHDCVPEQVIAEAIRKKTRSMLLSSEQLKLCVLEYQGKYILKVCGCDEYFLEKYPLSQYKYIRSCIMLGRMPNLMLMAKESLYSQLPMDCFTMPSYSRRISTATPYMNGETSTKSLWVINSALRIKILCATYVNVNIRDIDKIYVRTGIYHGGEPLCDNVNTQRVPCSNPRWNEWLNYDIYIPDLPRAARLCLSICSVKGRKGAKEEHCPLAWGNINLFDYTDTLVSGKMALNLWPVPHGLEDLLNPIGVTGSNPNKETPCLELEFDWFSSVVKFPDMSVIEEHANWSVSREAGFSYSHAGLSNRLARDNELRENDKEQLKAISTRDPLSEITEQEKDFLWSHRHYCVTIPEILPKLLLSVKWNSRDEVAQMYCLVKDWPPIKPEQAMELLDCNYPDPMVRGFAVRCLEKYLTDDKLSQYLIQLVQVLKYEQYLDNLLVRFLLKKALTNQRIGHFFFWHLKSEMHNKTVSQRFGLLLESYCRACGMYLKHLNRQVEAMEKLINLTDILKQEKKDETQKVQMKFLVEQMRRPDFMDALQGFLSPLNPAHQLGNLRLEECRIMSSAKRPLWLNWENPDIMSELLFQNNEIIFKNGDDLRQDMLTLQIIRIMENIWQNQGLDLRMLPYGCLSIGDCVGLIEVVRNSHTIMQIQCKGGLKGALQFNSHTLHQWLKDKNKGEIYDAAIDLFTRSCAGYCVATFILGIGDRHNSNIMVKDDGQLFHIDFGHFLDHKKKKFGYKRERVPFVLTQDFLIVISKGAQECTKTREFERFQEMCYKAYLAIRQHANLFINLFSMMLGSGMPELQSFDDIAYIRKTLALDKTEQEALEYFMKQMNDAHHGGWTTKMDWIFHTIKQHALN
Sequence of PI3Kα (P27986 whole entry partner): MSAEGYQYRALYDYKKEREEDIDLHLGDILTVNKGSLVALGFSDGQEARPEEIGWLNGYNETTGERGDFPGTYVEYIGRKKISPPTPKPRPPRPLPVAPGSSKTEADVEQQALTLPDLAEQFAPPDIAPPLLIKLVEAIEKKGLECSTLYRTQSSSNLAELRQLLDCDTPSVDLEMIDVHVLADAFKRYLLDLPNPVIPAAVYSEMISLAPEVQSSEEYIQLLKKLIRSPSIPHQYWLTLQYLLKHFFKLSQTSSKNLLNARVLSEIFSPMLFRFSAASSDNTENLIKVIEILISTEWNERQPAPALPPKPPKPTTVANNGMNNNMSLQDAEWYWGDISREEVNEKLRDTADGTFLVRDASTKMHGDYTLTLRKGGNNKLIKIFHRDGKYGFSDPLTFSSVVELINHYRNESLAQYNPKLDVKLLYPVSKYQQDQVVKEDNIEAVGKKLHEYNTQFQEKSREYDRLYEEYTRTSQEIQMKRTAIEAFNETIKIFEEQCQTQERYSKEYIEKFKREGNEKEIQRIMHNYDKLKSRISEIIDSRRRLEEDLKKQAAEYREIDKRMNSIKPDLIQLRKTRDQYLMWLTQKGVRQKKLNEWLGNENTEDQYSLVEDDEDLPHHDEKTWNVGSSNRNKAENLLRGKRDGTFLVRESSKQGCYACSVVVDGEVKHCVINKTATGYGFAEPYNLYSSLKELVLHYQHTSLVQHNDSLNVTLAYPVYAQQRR
Procedure: PI3Kα activity is measured as the percent of ATP consumed following the kinase reaction using luciferase-luciferin-coupled chemiluminescence. Reactions were conducted in 384-well white, medium binding microtiter plates (Greiner). Kinase reactions were initiated by combining test compounds, ATP, substrate (PIP2), and kinase in a 20 μL volume in a buffer solution. The standard PI3Kalpha assay buffer is composed 50 mM Tris, pH 7.5, 1 mM EGTA, 10 mM MgCl2, 1 mM DTT and 0.03% CHAPS. The standard assay concentrations for enzyme, ATP, and substrate are 1.5 nM, 1 μM, and 10 μM, respectively. The reaction mixture was incubated at ambient temperature for approximately 2 h. Following the kinase reaction, a 10 μL aliquot of luciferase-luciferin mix (Promega Kinase-Glo) was added and the chemiluminescence signal measured using a Victor2 plate reader (Perkin Elmer). Total ATP consumption was limited to 40-60% and IC50 values of control compounds correlate well with literature references. Substituting PI3Kα with PI3KIβ, […], or […], the inhibitory activity of the compounds for the other isoforms of I3K were measured.

IC50 [1] [nM]	IC50 [2] [nM]	Structure (SMILES)
700 to 2600	75 to 200	COC(=O)Nc1nc2cc(-c3ccc4c(c3)CN(C(=O)N3CC[C@H](O)C[C@@H]3c3ccc(F)cc3)CCO4)ccc2[nH]1 (racemic) [Compound 17, (±)-methyl [5-(4-{[(2R,4S)-2-(4-fluorophenyl)-4-hydroxypiperidin-1-yl]carbonyl}-2,3,4,5-tetrahydro-1,4-benzoxazepin-7-yl)-1H-benzimidazol-2-yl]carbamate]
250 to 700	1000 to 3000	Cc1nc2ccc(-c3ccc4c(c3)CN(C(=O)N3CC[C@@H]5CCCC[C@H]5C3)CCO4)cc2[nH]1 (racemic) [Compound 80, (±)-7-(2-methyl-1H-benzimidazol-6-yl)-4-[(4aS,8aR)-octahydroisoquinolin-2(1H)-ylcarbonyl]-2,3,4,5-tetrahydro-1,4-benzoxazepine]
50 to 250	200 to 500	CC1=C[C@H]2CN(C(=O)N3CCOc4ccc(-c5ccc6[nH]c(C)nc6c5)cc4C3)C[C@H]2C1 (racemic) [Compound 91, (±)-7-(2-methyl-1H-benzimidazol-5-yl)-4-{[(3aS,6aR)-5-methyl-3,3a,4,6a-tetrahydrocyclopenta[c]pyrrol-2(1H)-yl]carbonyl}-2,3,4,5-tetrahydro-1,4-benzoxazepine]
700 to 2600	1000 to 3000	Cc1nc2cc(-c3ccc4c(c3)CN(C(=O)N3CC[C@](C)(O)C[C@@H]3c3ccccc3)CCO4)ccc2[nH]1 (racemic) [Compound 134, (±)-(2R,4S)-4-methyl-1-{[7-(2-methyl-1H-benzimidazol-5-yl)-2,3-dihydro-1,4-benzoxazepin-4(5H)-yl]carbonyl}-2-phenylpiperidin-4-ol]
50 to 250	500 to 1000	Cc1nc2ccc(-c3ccc4c(c3)CN(C(=O)N3CC[C@H](O)C[C@@H]3c3ccc(F)cc3)CCO4)cc2[nH]1 (racemic) [Compound 136, (±)-(2R,4S)-2-(4-fluorophenyl)-1-{[7-(2-methyl-1H-benzimidazol-6-yl)-2,3-dihydro-1,4-benzoxazepin-4(5H)-yl]carbonyl}piperidin-4-ol]
50 to 250	200 to 500	Cc1nc2ccc(-c3ccc4c(c3)CN(C(=O)N3CC[C@H](O)C[C@@H]3c3ccc(F)c(F)c3)CCO4)cc2[nH]1 (racemic) [Compound 140, (±)-(2R,4S)-2-(3,4-difluorophenyl)-1-{[7-(2-methyl-1H-benzimidazol-6-yl)-2,3-dihydro-1,4-benzoxazepin-4(5H)-yl]carbonyl}piperidin-4-ol]
250 to 700	1000 to 3000	Cc1nc2ccc(-c3ccc4c(c3)CN(C(=O)N3CC[C@H](CF)C[C@@H]3c3ccc(F)c(F)c3)CCO4)cc2[nH]1 (racemic) [Compound 147, (±)-4-{[(2R,4S)-2-(3,4-difluorophenyl)-4-(fluoromethyl)piperidin-1-yl]carbonyl}-7-(2-methyl-1H-benzimidazol-6-yl)-2,3,4,5-tetrahydro-1,4-benzoxazepine]
50 to 250	200 to 500	Cc1nc2ccc(-c3ccc4c(c3)CN(C(=O)N3CC[C@@H](C#N)C[C@@H]3c3ccc(F)c(F)c3)CCO4)cc2[nH]1 (racemic) [Compound 148, (±)-(2R,4R)-2-(3,4-difluorophenyl)-1-{[7-(2-methyl-1H-benzimidazol-6-yl)-2,3-dihydro-1,4-benzoxazepin-4(5H)-yl]carbonyl}piperidine-4-carbonitrile]
50 to 250	200 to 500	COC(=O)Nc1nc2ccc(-c3ccc4c(c3)CN(C(=O)N3CCC(C)CC3)CCO4)cc2[nH]1 [Compound 2, methyl (6-{4-[(4-methylpiperidin-1-yl)carbonyl]-2,3,4,5-tetrahydro-1,4-benzoxazepin-7-yl}-1H-benzimidazol-2-yl)carbamate]
700 to 2600	1000 to 3000	CC1CCN(C(=O)N2CCOc3ccc(-c4cnc(N)nc4)cc3C2)CC1 [Compound 3, 5-{4-[(4-methylpiperidin-1-yl)carbonyl]-2,3,4,5-tetrahydro-1,4-benzoxazepin-7-yl}pyrimidin-2-amine]
250 to 700	1000 to 3000	CC(=O)Nc1ncc(-c2ccc3c(c2)CN(C(=O)N2CCC(C)CC2)CCO3)s1 [Compound 5, N-(5-{4-[(4-methylpiperidin-1-yl)carbonyl]-2,3,4,5-tetrahydro-1,4-benzoxazepin-7-yl}-1,3-thiazol-2-yl)acetamide]
≤ 50	≤ 75	O=C(N1CCC(C(F)(F)F)CC1)N1CCOc2ccc(-c3ccc(-c4ncc[nH]4)cc3)cc2C1 [Compound 7, 7-[4-(1H-imidazol-2-yl)phenyl]-4-{[4-(trifluoromethyl)piperidin-1-yl]carbonyl}-2,3,4,5-tetrahydro-1,4-benzoxazepine]
250 to 700	1000 to 3000	CC1CCN(C(=O)N2CCOc3ccc(-c4cncs4)cc3C2)CC1 [Compound 8, 4-[(4-methylpiperidin-1-yl)carbonyl]-7-(1,3-thiazol-5-yl)-2,3,4,5-tetrahydro-1,4-benzoxazepine]
	200 to 500	Cc1nc2ccc(-c3ccc4c(c3)CN(C(=O)N3[C@@H]5CC[C@H]3C[C@@H](CO)C5)CCO4)cc2[nH]1 [Compound 112, (8-{[7-(2-methyl-1H-benzimidazol-6-yl)-2,3-dihydro-1,4-benzoxazepin-4(5H)-yl]carbonyl}-8-azabicyclo[3.2.1]oct-3-(endo)-yl)methanol]
	1000 to 3000	Cc1nc2ccc(-c3ccc4c(c3)CN(C(=O)N3CCCCC3c3cc(C(F)(F)F)cc(C(F)(F)F)c3)CCO4)cc2[nH]1 (centres unmarked) [Compound 115, 4-({2-[3,5-bis(trifluoromethyl)phenyl]piperidin-1-yl}carbonyl)-7-(2-methyl-1H-benzimidazol-6-yl)-2,3,4,5-tetrahydro-1,4-benzoxazepine]
	1000 to 3000	Cc1nc2ccc(-c3ccc4c(c3)CN(C(=O)N3CCC(O)(C(F)(F)F)CC3c3ccc(F)c(F)c3)CCO4)cc2[nH]1 (centres unmarked) [Compound 119, 2-(3,4-difluorophenyl)-1-{[7-(2-methyl-1H-benzimidazol-6-yl)-2,3-dihydro-1,4-benzoxazepin-4(5H)-yl]carbonyl}-4-(trifluoromethyl)piperidin-4-ol]
	500 to 1000	Cc1nc2ccc(-c3ccc4c(c3)CN(C(=O)N3CCOCC3)CCO4)cc2[nH]1 [Compound 132, 7-(2-methyl-1H-benzimidazol-6-yl)-4-(morpholin-4-ylcarbonyl)-2,3,4,5-tetrahydro-1,4-benzoxazepine]
	1000 to 3000	Cc1nc2ccc(-c3ccc4c(c3)CN(C(=O)N3CCN(C)CC3c3ccccc3)CCO4)cc2[nH]1 (centres unmarked) [Compound 144, 7-(2-methyl-1H-benzimidazol-6-yl)-4-[(4-methyl-2-phenylpiperazin-1-yl)carbonyl]-2,3,4,5-tetrahydro-1,4-benzoxazepine]
	1000 to 3000	CCOC(=O)CN(Cc1ccccc1)C(=O)N1CCOc2ccc(-c3ccc4nc(C)[nH]c4c3)cc2C1 [Compound 151, ethyl N-{[7-(2-methyl-1H-benzimidazol-6-yl)-2,3-dihydro-1,4-benzoxazepin-4(5H)-yl]carbonyl}-N-(phenylmethyl)glycinate]
	1000 to 3000	Cc1nc2ccc(-c3ccc4c(c3)CN(C(=O)N3CCN(C(=O)c5ccco5)CC3)CCO4)cc2[nH]1 [Compound 158, 4-{[4-(furan-2-ylcarbonyl)piperazin-1-yl]carbonyl}-7-(2-methyl-1H-benzimidazol-6-yl)-2,3,4,5-tetrahydro-1,4-benzoxazepine]
	200 to 500	Cc1nc2ccc(-c3ccc4c(c3)CN(C(=O)N3CCN(c5ccc([N+](=O)[O-])cc5)CC3)CCO4)cc2[nH]1 [Compound 168, 7-(2-methyl-1H-benzimidazol-6-yl)-4-{[4-(4-nitrophenyl)piperazin-1-yl]carbonyl}-2,3,4,5-tetrahydro-1,4-benzoxazepine]
	500 to 1000	CC(=O)c1ccc(N2CCN(C(=O)N3CCOc4ccc(-c5ccc6nc(C)[nH]c6c5)cc4C3)CC2)cc1 [Compound 169, 1-[4-(4-{[7-(2-methyl-1H-benzimidazol-6-yl)-2,3-dihydro-1,4-benzoxazepin-4(5H)-yl]carbonyl}piperazin-1-yl)phenyl]ethanone]
